Assay results: US20220289679A1, “HETEROCYCLIC COMPOUND” (Takeda Pharmaceutical Company Limited, priority 2019, published 2022)

Biological target: T1, human GCS (glucosylceramide synthase) (Homo sapiens, UniProt Q16739)
T1 construct: made in house; host or cells: Expi293F cells (transient expression; microsome fraction)
T1 sequence (Q16739 1-394): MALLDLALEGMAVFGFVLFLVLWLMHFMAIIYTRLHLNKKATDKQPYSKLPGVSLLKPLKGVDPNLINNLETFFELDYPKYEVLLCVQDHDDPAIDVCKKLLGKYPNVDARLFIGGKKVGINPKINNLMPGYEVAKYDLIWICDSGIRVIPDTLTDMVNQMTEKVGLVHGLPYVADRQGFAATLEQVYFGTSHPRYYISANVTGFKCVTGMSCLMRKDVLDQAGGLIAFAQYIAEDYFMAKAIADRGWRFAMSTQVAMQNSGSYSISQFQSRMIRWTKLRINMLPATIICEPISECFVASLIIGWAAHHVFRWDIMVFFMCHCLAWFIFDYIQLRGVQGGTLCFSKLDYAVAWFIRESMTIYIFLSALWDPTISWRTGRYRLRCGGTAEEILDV
Assay: Glucosylceramide Synthase (GCS) Assay
Assay type: biochemical
Details: test compound 10 μM; microsome fraction of Expi293F cells expressing human GCS; 1.7 μM UDP-glucose, 3 μM C8 ceramide; room temperature 60 min; C8 glucosylceramide by Rapidfire MS/MS; read-out: GCS enzyme inhibitory rate at 10 μM (%)
Procedure, shortened: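 Test compounds were run at a final 10 μM against liposomal C8 ceramide (3 μM) and UDP-glucose at its Km (1.7 μM). Human GCS came as microsomes from transfected Expi293F cells, incubated 60 min at room temperature, pH 7.5. Product measured by RapidFire MS/MS; 0% and 100% inhibition were DMSO and no-enzyme wells.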

Compound | inhibition at 10 µM [%]
Cc1cc(C(=O)Nc2ccc(C(O)(C(F)F)C(F)F)cc2F)c(=O)n(-c2ccccc2OCC(F)F)n1 [Example 156, 2-[2-(2,2-difluoroethoxy)phenyl)-N-[2-fluoro-4-(1,1,3,3-tetrafluoro-2-hydroxypropan-2-yl)phenyl]-6-methyl-3-oxo-2,3-dihydropyridazine-4-carboxamide] | 100
O=C(Nc1ccc(C(O)(C(F)F)C(F)F)cc1F)c1ccnn(-c2ccccc2OCC(F)F)c1=O [Example 157, 2-[2-(2,2-difluoroethoxy)phenyl]-N-[2-fluoro-4-(1,1,3,3-tetrafluoro-2-hydroxypropan-2-yl)phenyl]-3-oxo-2,3-dihydropyridazine-4-carboxamide] | 100
Cn1cc(C(=O)Nc2ccc(C(C)(C)O)cc2)c(=O)c(-c2ccccc2OCC(F)F)n1 [Example 158, 6-[2-(2,2-difluoroethoxy)phenyl]-N-[4-(2-hydroxypropan-2-yl)phenyl]-2-methyl-5-oxo-2,5-dihydropyridazine-4-carboxamide] | 100
Cn1cc(C(=O)Nc2ccc(C(O)(C(F)F)C(F)F)cc2)c(=O)c(-c2ccccc2OCC(F)F)n1 [Example 159, 6-[2-(2,2-difluoroethoxy)phenyl]-2-methyl-5-oxo-N-[4-(1,1,3,3-tetrafluoro-2-hydroxypropan-2-yl)phenyl]-2,5-dihydropyridazine-4-carboxamide] | 100
O=C(Nc1ccc(C(O)(C(F)F)C(F)F)cc1Cl)c1ccnn(-c2ccccc2OCC(F)F)c1=O [Example 160, N-[2-chloro-4-(1,1,3,3-tetrafluoro-2-hydroxypropan-2-yl)phenyl]-2-[2-(2,2-difluoroethoxy)phenyl]-3-oxo-2,3-dihydropyridazine-4-carboxamide] | 100
CC(C)(O)c1ccc(NC(=O)c2cn(C(F)F)nc(-c3ccccc3OCC(F)F)c2=O)cc1 [Example 161, 6-[2-(2,2-difluoroethoxy)phenyl]-2-(difluoromethyl)-N-[4-(2-hydroxypropan-2-yl)phenyl]-5-oxo-2,5-dihydropyridazine-4-carboxamide] | 100
O=C(Nc1ccc(C(O)(C(F)F)C(F)F)nc1)c1ccnn(-c2ccccc2OCC(F)(F)F)c1=O [Example 162, 3-oxo-N-[6-(1,1,3,3-tetrafluoro-2-hydroxypropan-2-yl)pyridin-3-yl]-2-[2-(2,2,2-trifluoroethoxy)phenyl]-2,3-dihydropyridazine-4-carboxamide] | 100
O=C(Nc1ccc(C(O)(C(F)F)C(F)F)cc1)c1cn(C(F)F)nc(-c2ccccc2OCC(F)F)c1=O [Example 163, 6-[2-(2,2-difluoroethoxy)phenyl]-2-(difluoromethyl)-5-oxo-N-[4-(1,1,3,3-tetrafluoro-2-hydroxypropan-2-yl)phenyl]-2,5-dihydropyridazine-4-carboxamide] | 100
Cn1cc(C(=O)Nc2ccc(OCC(C)(C)O)cc2)c(=O)c(-c2ccccc2OCC(F)F)n1 [Example 164, 6-[2-(2,2-difluoroethoxy)phenyl]-N-[4-(2-hydroxy-2-methylpropoxy)phenyl]-2-methyl-5-oxo-2,5-dihydropyridazine-4-carboxamide] | 94
CC(C)(O)COc1ccc(NC(=O)c2cn(C(F)F)nc(-c3ccccc3OCC(F)F)c2=O)cc1 [Example 165, 6-[2-(2,2-difluoroethoxy)phenyl]-2-(difluoromethyl)-N-[4-(2-hydroxy-2-methylpropoxy)phenyl]-5-oxo-2,5-dihydropyridazine-4-carboxamide] | 98
Cn1cc(C(=O)Nc2ccc(C(C)(C)O)cc2)c(=O)c(-c2ccccc2OCC(F)(F)F)n1 [Example 166, N-[4-(2-hydroxypropan-2-yl)phenyl]-2-methyl-5-oxo-6-[2-(2,2,2-trifluoroethoxy)pheny]-2,5-dihydropyridazine-4-carboxamide] | 100

Other lines, results leading:

inhibition at 10 µM [%] | Compound
96 | CC(C)(O)Cn1cc(C(=O)Nc2ccc(OCC(F)(F)F)cc2)c(=O)c(-c2ccccc2OCC(F)F)n1 [Example 168, 6-[2-(2,2-difluoroethoxy)phenyl]-2-(2-hydroxy-2-methylpropyl)-5-oxo-N-[4-(2,2,2-trifluoroethoxy)phenyl]-2,5-dihydropyridazine-4-carboxamide]
100 | CC(C)(O)c1ccc(NC(=O)c2cn(C3CC3)nc(-c3ccccc3OCC(F)F)c2=O)cc1 [Example 169, 2-cyclopropyl-6-[2-(2,2-difluoroethoxy)phenyl]-N-[4-(2-hydroxypropan-2-yl)phenyl]-5-oxo-2,5-dihydropyridazine-4-carboxamide]
65 | CCOC(=O)c1ccc(NC(=O)c2cc(C)nn(-c3ccccc3OCC(F)F)c2=O)s1 [Example 170, ethyl 5-({2-[2-(2,2-difluoroethoxy)phenyl]-6-methyl-3-oxo-2,3-dihydropyridazine-4-carbonyl}amino)thiophene-2-carboxylate]
100 | Cn1cc(C(=O)Nc2ccc(C(C)(C)C#N)cc2)c(=O)c(-c2ccccc2OCC(F)F)n1 [Example 172, N-[4-(2-cyanopropan-2-yl)phenyl]-6-[2-(2,2-difluoroethoxy)phenyl]-2-methyl-5-oxo-2,5-dihydropyridazine-4-carboxamide]
95 | CC(C)(O)Cn1cc(C(=O)Nc2ccc(OC(F)F)cc2)c(=O)c(-c2ccccc2OCC(F)F)n1 [Example 173, 6-[2-(2,2-difluoroethoxy)phenyl]-N-[4-(difluoromethoxy)phenyl]-2-(2-hydroxy-2-methylpropyl)-5-oxo-2,5-dihydropyridazine-4-carboxamide]
91 | CC(C)(O)Cn1cc(C(=O)Nc2ccc(C(C)(C)O)cc2)c(=O)c(-c2ccccc2OCC(F)F)n1 [Example 174, 6-[2-(2,2-difluoroethoxy)phenyl]-2-(2-hydroxy-2-methylpropyl)-N-[4-(2-hydroxypropan-2-yl)phenyl]-5-oxo-2,5-dihydropyridazine-4-carboxamide]
100 | O=C(Nc1ccc(C(O)(C(F)F)C(F)F)cc1)c1cn(CC2COC2)nc(-c2ccccc2OCC(F)F)c1=O [Example 175, 6-[2-(2,2-difluoroethoxy)phenyl]-2-[(oxetan-3-yl)methyl]-5-oxo-N-[4-(1,1,3,3-tetrafluoro-2-hydroxypropan-2-yl)phenyl]-2,5-dihydropyridazine-4-carboxamide]
100 | Cn1cc(C(=O)Nc2ccc(C(O)(C(F)F)C(F)F)nc2)c(=O)c(-c2ccccc2OCC(F)F)n1 [Example 176, 6-[2-(2,2-difluoroethoxy)phenyl]-2-methyl-5-oxo-N-[6-(1,1,3,3-tetrafluoro-2-hydroxypropan-2-yl)pyridin-3-yl]-2,5-dihydropyridazine-4-carboxamide]
100 | O=C(Nc1ccc(C(O)(C(F)F)C(F)F)nc1)c1cn(C(F)F)nc(-c2ccccc2OCC(F)F)c1=O [Example 177, 6-[2-(2,2-difluoroethoxy)phenyl]-2-(difluoromethyl)-5-oxo-N-[6-(1,1,3,3-tetrafluoro-2-hydroxypropan-2-yl)pyridin-3-yl]-2,5-dihydropyridazine-4-carboxamide]
97 | CC(C)(O)Cn1cc(C(=O)Nc2ccc(C(O)(C(F)F)C(F)F)nc2)c(=O)c(-c2ccccc2OCC(F)F)n1 [Example 178, 6-[2-(2,2-difluoroethoxy)phenyl]-2-(2-hydroxy-2-methylpropyl)-5-oxo-N-[6-(1,1,3,3-tetrafluoro-2-hydroxypropan-2-yl)pyridin-3-yl]-2,5-dihydropyridazine-4-carboxamide]
99 | CC(C)(O)c1ccc(NC(=O)c2cn(CC(F)F)nc(-c3ccccc3OCC(F)F)c2=O)cc1 [Example 179, 6-[2-(2,2-difluoroethoxy)phenyl]-2-(2,2-difluoroethyl)-N-[4-(2-hydroxypropan-2-yl)phenyl]-5-oxo-2,5-dihydropyridazine-4-carboxamide]
96 | CC(C)(O)c1ccc(NC(=O)c2cn(CC3COC3)nc(-c3ccccc3OCC(F)F)c2=O)cc1 [Example 180, 6-[2-(2,2-difluoroethoxy)phenyl]-N-[4-(2-hydroxypropan-2-yl)phenyl]-2-[(oxetan-3-yl)methyl]-5-oxo-2,5-dihydropyridazine-4-carboxamide]
97 | O=C(Nc1ccc(F)cc1F)c1cn(CC2COC2)nc(-c2ccccc2OCC(F)F)c1=O [Example 181, 6-[2-(2,2-difluoroethoxy)phenyl]-N-(2,4-difluorophenyl)-2-[(oxetan-3-yl)methyl]-5-oxo-2,5-dihydropyridazine-4-carboxamide]
90 | O=C(Nc1ccc(F)cc1F)c1cn(C2COC2)nc(-c2ccccc2OCC(F)F)c1=O [Example 182, 6-[2-(2,2-difluoroethoxy)phenyl]-N-(2,4-difluorophenyl)-2-(oxetan-3-yl)-5-oxo-2,5-dihydropyridazine-4-carboxamide]
100 | CC(C)(O)c1ccc(NC(=O)c2cn(C3COC3)nc(-c3ccccc3OCC(F)F)c2=O)cc1 [Example 183]
